# Experimental data taken from patent US8937048B2, “Anti-angiogenic compounds” (Covx Technologies Ireland, Limited, priority 2008, dated 2015).
# Where a SMILES comes first, the peptide text is derived from it. Bridges are numbered along the chain shown (N, C = ends).
# Target: T1, recombinant human VEGF165 (Homo sapiens, UniProt P15692)
# T1 sequence (P15692 27-191 isoform P15692-4): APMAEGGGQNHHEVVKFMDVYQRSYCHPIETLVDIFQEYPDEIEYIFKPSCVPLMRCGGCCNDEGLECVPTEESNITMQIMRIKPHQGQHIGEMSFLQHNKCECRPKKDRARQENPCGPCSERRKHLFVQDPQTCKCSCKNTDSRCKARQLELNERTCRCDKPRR
# Test: VEGF peptide binding assay (competition ELISA, VEGF165 binding to coated VEGFR2/Fc)
# Description: High-binding half-well 96-well plates (Costar #3690) were coated with recombinant human VEGFR2/Fc (50 ng/well) in 50 μl PBS, and incubated at 4° C. overnight. After washing the plates three times with 1× washing buffer (KPL Cat#50-65-00) and blocking with Superblock (Scytek #AAA500) at room temperature (RT) for 1 hour, VEGF-peptides of the invention were serially diluted (concentrations: 0.128-10,000 nM) in the presence of 25 ng/ml of recombinant human VEGF165 in […] Superblock, and were then added to the 96-well plates and incubated at RT for 1 hour. Peptides of the invention tested in this fashion were all capped at the amino terminus with a C(O)CH3 group and at the carboxyl terminus with a NH2 group. The plates were then washed three times with washing buffer, and a diluted (1:500) biotinylated anti-human VEGF antibody (R&D systems, Cat# BAF293) was added and incubated at RT for 2 hours. After washing the plates, streptavidin HRP conjugate (1:200 in Superblock) (R&D systems, Cat# DY998) was added to detect the bound anti-VEGF antibody, followed by addition of tetramethylbenzidine (TMB) substrate (Pierce, Cat#34021) for color development. The reaction was stopped with 2 M H2SO4. OD450 was measured using SpectraMax (Molecular Device) with a correction wavelength of 540 nm. The data were analyzed using Prism software. OD450 values were plotted as a function of the concentrations of the VEGF peptides. IC50 values, indicative of the potency of the VEGF peptides to inhibit VEGF-VEGFR2 interaction, were obtained using a sigmoid dose-response curve fit in Prism.
row,Structure (SMILES),IC50
1,"CC[C@H](C)[C@@H]1NC(=O)[C@H](CC(=O)O)NC(=O)[C@@H](NC(=O)[C@H](CC(N)=O)NC(=O)[C@@H]2CCCN2C(=O)[C@H](CCC(=O)O)NC(=O)[C@@H](NC(C)=O)C(C)C)CSSC[C@@H](C(=O)N[C@@H](Cc2ccccc2)C(=O)N[C@@H](CCC(=O)O)C(=O)N[C@@H](CCCNC(=N)N)C(=O)N[C@@H](CC(C)C)C(=O)N[C@@H](Cc2ccc(O)cc2)C(=O)NCC(=O)NCC(=O)NCC(N)=O)NC(=O)[C@H](C(C)C)NC(=O)[C@H](Cc2c[nH]c3ccccc23)NC(=O)[C@H](C(C)C)NC(=O)[C@H](Cc2c[nH]c3ccccc23)NC(=O)[C@H](CCSC)NC(=O)[C@H](C(C)C)NC(=O)[C@H](Cc2c[nH]cn2)NC1=O [Compound 43, VEPNCDIHVMWVWVCFERLYGGG] (Ac-VEPNCDIHVMWVWVCFERLYGGG-NH2; disulfide 5-15)",0.066 µM
2,"CC[C@H](C)[C@@H]1NC(=O)[C@H](CC(=O)O)NC(=O)[C@@H](NC(=O)[C@H](CC(N)=O)NC(=O)[C@@H]2CCCN2C(=O)[C@H](CCC(=O)O)NC(=O)[C@@H](NC(C)=O)C(C)C)CSSC[C@@H](C(=O)N[C@@H](Cc2ccccc2)C(=O)N[C@@H](CCC(=O)O)C(=O)N[C@@H](CCCNC(=N)N)C(=O)N[C@@H](CC(C)C)C(=O)N[C@@H](Cc2ccc(O)cc2)C(=O)NCC(=O)N[C@@H](CC(C)C)C(=O)N[C@@H](Cc2ccc(O)cc2)C(N)=O)NC(=O)[C@H](CCC(=O)O)NC(=O)[C@H](Cc2c[nH]c3ccccc23)NC(=O)[C@H](C(C)C)NC(=O)[C@H](Cc2c[nH]c3ccccc23)NC(=O)[C@H](CCSC)NC(=O)[C@H](C(C)C)NC(=O)[C@H](Cc2c[nH]cn2)NC1=O [Compound 44, VEPNCDIHVMWVWECFERLYGLY] (Ac-VEPNCDIHVMWVWECFERLYGLY-NH2; disulfide 5-15 (inferred))",0.0546 µM
3,"CC[C@H](C)[C@@H]1NC(=O)[C@H](CC(=O)O)NC(=O)[C@@H](NC(=O)[C@H](CC(N)=O)NC(=O)[C@@H]2CCCN2C(=O)[C@H](CCC(=O)O)NC(=O)[C@@H](NC(C)=O)C(C)C)CSSC[C@@H](C(=O)N[C@@H](Cc2ccccc2)C(=O)N[C@@H](CCC(=O)O)C(=O)N[C@@H](CCCNC(=N)N)C(=O)N[C@@H](CC(C)C)C(=O)N[C@@H](CO)C(=O)NCC(=O)NCC(=O)NCC(N)=O)NC(=O)[C@H](CCC(=O)O)NC(=O)[C@H](Cc2c[nH]c3ccccc23)NC(=O)[C@H](C(C)C)NC(=O)[C@H](Cc2c[nH]c3ccccc23)NC(=O)[C@H](CCSC)NC(=O)[C@H](C(C)C)NC(=O)[C@H](Cc2c[nH]cn2)NC1=O [Compound 45, VEPNCDIHVMWVWECFERLSGGG] (Ac-VEPNCDIHVMWVWECFERLSGGG-NH2; disulfide 5-15 (inferred))",0.051 µM
4,"CC[C@H](C)[C@@H]1NC(=O)[C@H](CC(=O)O)NC(=O)[C@@H](NC(=O)[C@H](CC(N)=O)NC(=O)[C@@H]2CCCN2C(=O)[C@H](CCC(=O)O)NC(=O)[C@@H](NC(C)=O)C(C)C)CSSC[C@@H](C(=O)N[C@@H](Cc2ccccc2)C(=O)N[C@@H](CCC(=O)O)C(=O)N[C@@H](CCCNC(=N)N)C(=O)N[C@@H](CC(C)C)C(=O)N[C@@H](CCSC)C(=O)N[C@@H](CCCNC(=N)N)C(=O)N[C@@H](CC(C)C)C(=O)N[C@H](C(N)=O)[C@@H](C)O)NC(=O)[C@H](CCC(=O)O)NC(=O)[C@H](Cc2c[nH]c3ccccc23)NC(=O)[C@H](C(C)C)NC(=O)[C@H](Cc2c[nH]c3ccccc23)NC(=O)[C@H](CCSC)NC(=O)[C@H](C(C)C)NC(=O)[C@H](Cc2c[nH]cn2)NC1=O [Compound 46, VEPNCDIHVMWVWECFERLMRLT] (Ac-VEPNCDIHVMWVWECFERLMRLT-NH2; disulfide 5-15 (inferred))",0.0441 µM
5,"CC[C@H](C)[C@@H]1NC(=O)[C@H](CC(=O)O)NC(=O)[C@@H](NC(=O)[C@H](CC(N)=O)NC(=O)[C@@H]2CCCN2C(=O)[C@H](CCC(=O)O)NC(=O)[C@@H](NC(C)=O)C(C)C)CSSC[C@@H](C(=O)N[C@@H](Cc2ccccc2)C(=O)N[C@@H](CCC(=O)O)C(=O)N[C@@H](CCCNC(=N)N)C(=O)N[C@@H](CC(C)C)C(=O)N[C@@H](Cc2ccc(O)cc2)C(=O)NCC(N)=O)NC(=O)[C@H](CCC(=O)O)NC(=O)[C@H](Cc2c[nH]c3ccccc23)NC(=O)[C@H](C(C)C)NC(=O)[C@H](Cc2c[nH]c3ccccc23)NC(=O)[C@H](CCSC)NC(=O)[C@H](C(C)C)NC(=O)[C@H](Cc2c[nH]cn2)NC1=O [Compound 47, VEPNCDIHVMWVWECFERLYG] (Ac-VEPNCDIHVMWVWECFERLYG-NH2; disulfide 5-15 (inferred))",0.0433 µM
6,"CC[C@H](C)[C@@H]1NC(=O)[C@H](CC(=O)O)NC(=O)[C@@H](NC(=O)[C@H](CC(N)=O)NC(=O)[C@@H]2CCCN2C(=O)[C@H](CCC(=O)O)NC(=O)[C@@H](NC(C)=O)C(C)C)CSSC[C@@H](C(=O)N[C@@H](Cc2ccccc2)C(=O)N[C@@H](CCC(=O)O)C(=O)N[C@@H](CCCNC(=N)N)C(=O)N[C@@H](CC(C)C)C(=O)N[C@H](C(=O)N[C@@H](CCCCN)C(N)=O)C(C)C)NC(=O)[C@H](CCC(=O)O)NC(=O)[C@H](Cc2c[nH]c3ccccc23)NC(=O)[C@H](C(C)C)NC(=O)[C@H](Cc2c[nH]c3ccccc23)NC(=O)[C@H](CCSC)NC(=O)[C@H](C(C)C)NC(=O)[C@H](Cc2c[nH]cn2)NC1=O [Compound 48, VEPNCDIHVMWVWECFERLVK] (Ac-VEPNCDIHVMWVWECFERLVK-NH2; disulfide 5-15 (inferred))",0.0424 µM
7,"CC[C@H](C)[C@@H]1NC(=O)[C@H](CC(=O)O)NC(=O)[C@@H](NC(=O)[C@H](CC(N)=O)NC(=O)[C@@H]2CCCN2C(=O)[C@H](CCC(=O)O)NC(=O)[C@@H](NC(C)=O)C(C)C)CSSC[C@@H](C(=O)N[C@@H](Cc2ccccc2)C(=O)N[C@@H](CCC(=O)O)C(=O)N[C@@H](CCCNC(=N)N)C(=O)N[C@@H](CC(C)C)C(=O)N[C@@H](CCSC)C(=O)N[C@@H](CCCNC(=N)N)C(N)=O)NC(=O)[C@H](CCC(=O)O)NC(=O)[C@H](Cc2c[nH]c3ccccc23)NC(=O)[C@H](C(C)C)NC(=O)[C@H](Cc2c[nH]c3ccccc23)NC(=O)[C@H](CCSC)NC(=O)[C@H](C(C)C)NC(=O)[C@H](Cc2c[nH]cn2)NC1=O [Compound 49, VEPNCDIHVMWVWECFERLMR] (Ac-VEPNCDIHVMWVWECFERLMR-NH2; disulfide 5-15 (inferred))",0.0345 µM
8,"CC[C@H](C)[C@H](NC(=O)CNC(=O)[C@H](Cc1ccc(O)cc1)NC(=O)[C@H](CC(C)C)NC(=O)[C@H](CCCNC(=N)N)NC(=O)[C@H](CCC(=O)O)NC(=O)[C@H](Cc1ccccc1)NC(=O)[C@@H]1CSSC[C@H](NC(=O)[C@H](CC(N)=O)NC(=O)[C@@H]2CCCN2C(=O)[C@H](CCC(=O)O)NC(=O)[C@@H](NC(C)=O)C(C)C)C(=O)N[C@@H](CC(=O)O)C(=O)N[C@@H]([C@@H](C)CC)C(=O)N[C@@H](Cc2c[nH]cn2)C(=O)N[C@@H](C(C)C)C(=O)N[C@@H](CCSC)C(=O)N[C@@H](Cc2c[nH]c3ccccc23)C(=O)N[C@@H](C(C)C)C(=O)N[C@@H](Cc2c[nH]c3ccccc23)C(=O)N[C@@H](CCC(=O)O)C(=O)N1)C(=O)N[C@@H](CC(C)C)C(N)=O [Compound 50, VEPNCDIHVMWVWECFERLYGIL] (Ac-VEPNCDIHVMWVWECFERLYGIL-NH2; disulfide 5-15 (inferred))",0.0344 µM
9,"CC[C@H](C)[C@@H]1NC(=O)[C@H](CC(=O)O)NC(=O)[C@@H](NC(=O)[C@H](CC(N)=O)NC(=O)[C@@H]2CCCN2C(=O)[C@H](CCC(=O)O)NC(=O)[C@@H](NC(C)=O)C(C)C)CSSC[C@@H](C(=O)N[C@@H](Cc2ccccc2)C(=O)N[C@@H](CCC(=O)O)C(=O)N[C@@H](CCCNC(=N)N)C(=O)N[C@@H](CC(C)C)C(=O)N[C@@H](Cc2ccc(O)cc2)C(=O)NCC(=O)NCC(N)=O)NC(=O)[C@H](CCC(=O)O)NC(=O)[C@H](Cc2c[nH]c3ccccc23)NC(=O)[C@H](C(C)C)NC(=O)[C@H](Cc2c[nH]c3ccccc23)NC(=O)[C@H](CCSC)NC(=O)[C@H](C(C)C)NC(=O)[C@H](Cc2c[nH]cn2)NC1=O [Compound 52, VEPNCDIHVMWVWECFERLYGG] (Ac-VEPNCDIHVMWVWECFERLYGG-NH2; disulfide 5-15 (inferred))",0.0323 µM
10,"CC[C@H](C)[C@@H]1NC(=O)[C@H](CC(=O)O)NC(=O)[C@@H](NC(=O)[C@H](CC(N)=O)NC(=O)[C@@H]2CCCN2C(=O)[C@H](CCC(=O)O)NC(=O)[C@@H](NC(C)=O)C(C)C)CSSC[C@@H](C(=O)N[C@@H](Cc2ccccc2)C(=O)N[C@@H](CCC(=O)O)C(=O)N[C@@H](CCCNC(=N)N)C(=O)N[C@@H](CC(C)C)C(=O)N[C@@H](Cc2ccccc2)C(=O)N[C@@H](CCCCN)C(=O)N[C@@H](CCC(=O)O)C(=O)N[C@@H](C)C(N)=O)NC(=O)[C@H](CCC(=O)O)NC(=O)[C@H](Cc2c[nH]c3ccccc23)NC(=O)[C@H](C(C)C)NC(=O)[C@H](Cc2c[nH]c3ccccc23)NC(=O)[C@H](CCSC)NC(=O)[C@H](C(C)C)NC(=O)[C@H](Cc2c[nH]cn2)NC1=O [Compound 53, VEPNCDIHVMWVWECFERLFKEA] (Ac-VEPNCDIHVMWVWECFERLFKEA-NH2; disulfide 5-15 (inferred))",0.0314 µM
